Paper PMC7438908, “Antimicrobial Peptide Reverses ABCB1-Mediated Chemotherapeutic Drug Resistance” (Frontiers in Pharmacology, 2020)
“Also recorded” adds a separate entry of the source. Read-outs that look alike come from different tables or passages of the source. Where no end group is shown, it is not given here.

Assays:
KB-3-1 cells [1] = experiment: MTT reversal assay, parental KB-3-1; format: cell-based, human; conditions: no modulator, mean ± SD of at least three independent experiments in triplicate, read-out: IC50 of anticancer drug alone
Procedure: (§1) Therefore, we used KB-C2 and its parental cell line KB-3-1 in this study. […] All the cell lines were cultured in DMEM containing 1% penicillin/streptomycin and 10% FBS at 37°C with 5% CO2. All drug-resistant cell lines were cultured in drug-free medium for more than 2 weeks prior to their use.
(§2) Briefly, 5×10^3 cells per well were evenly seeded in 96-well microplates overnight. For the cytotoxicity assay, peptides and positive control of known substrate anticancer drugs were added in a designated concentration gradient. For the reversal assay, peptides and positive control agents were added 2 h before the addition of anticancer drugs within the specified concentration gradient. The plates were incubated in a culture condition for 68 h followed by the addition of 20 μL MTT solution (4 mg/mL) and further incubation of 4 h. After aspirating the culture medium and MTT solution, the formazan crystals were dissolved with 100 μL DMSO. The absorbance was determined at 570 nm with the accuSkan GO UV/Vis Microplate Spectrophotometer (Fisher Sci., Fair Lawn, NJ).

HEK293/pcDNA3.1 cells = experiment: MTT reversal assay, HEK293/pcDNA3.1; format: cell-based; conditions: no modulator, mean ± SD of at least three independent experiments in triplicate, read-out: IC50 of anticancer drug alone
Procedure: as §1, §2

[2] = tested on: KB-C2 cells (ABCB1-overexpressing); experiment: MTT reversal assay, drug-selected ABCB1-overexpressing KB-C2; format: cell-based, human
Procedure: as §1, §2

HEK293/ABCB1 cells = experiment: MTT reversal assay, transfected HEK293/ABCB1; format: cell-based; conditions: HEK293/ABCB1, read-out: IC50 of anticancer drug alone
ABCB1 in KB-C2 cells [3] = experiment: [3H]-paclitaxel efflux, KB-C2; format: cell-based, human; conditions: without inhibitor treatment, 2 h
Procedure: (§3) Drug accumulation and efflux assays were performed as previously described ([Fan et al., 2018]). For the drug accumulation assay, KB-C2 and KB-3-1 cells were seeded at 1×10^4 cells per well into 24-well plates and incubated at 37°C overnight. After cells were incubated in the presence or absence of peptide HX-12C and positive reversal agent for 72 h, the medium was replaced by medium containing 5 μM [^3H]-paclitaxel with peptide HX-12C or positive reversal agent. The drug medium was discarded after 2 h incubation, then cells were washed three times with ice-cold PBS and transferred to the scintillation fluid. The drug efflux assay was performed after discarding the drug medium, then cells were washed three times with ice-cold PBS and treated with the medium containing peptide HX-12C or positive reversal agent. There were three different time points (30, 60, and 120 min) at which after changing the medium, the cells were washed three times with ice-cold PBS and collected and transferred to the scintillation fluid. The Packard TRI-CARB1 190`A liquid scintillation analyzer was used to measure radioactivity. A parallel well of cells for each group was set up for cell number counting at the end of assay for the purpose of data normalization.

ABCB1 in KB-C2 cells [4] = experiment: [3H]-paclitaxel accumulation, KB-C2; format: cell-based, human; conditions: KB-C2 vs KB-3-1; after 2 hours of incubation; no inhibitor
Procedure: as §3

KB-3-1 cells [5] = experiment: MTT cytotoxicity of peptides, parental KB-3-1; format: cell-based, human; conditions: KB-3-1 parental; modified MTT, 68 h + 4 h MTT, 570 nm; three independent experiments
Procedure: as §1, §2

ABCB1 = target: T1, ABCB1 (Homo sapiens, UniProt P08183); experiment: ABCB1 ATPase assay (vanadate-sensitive); format: biochemical; conditions: insect cell membrane vesicles
T1 construct: purchased BD Biosciences, San Jose, CA, USA; host or cells: High Five insect cells (membrane vesicles)
T1 sequence (P08183 whole entry): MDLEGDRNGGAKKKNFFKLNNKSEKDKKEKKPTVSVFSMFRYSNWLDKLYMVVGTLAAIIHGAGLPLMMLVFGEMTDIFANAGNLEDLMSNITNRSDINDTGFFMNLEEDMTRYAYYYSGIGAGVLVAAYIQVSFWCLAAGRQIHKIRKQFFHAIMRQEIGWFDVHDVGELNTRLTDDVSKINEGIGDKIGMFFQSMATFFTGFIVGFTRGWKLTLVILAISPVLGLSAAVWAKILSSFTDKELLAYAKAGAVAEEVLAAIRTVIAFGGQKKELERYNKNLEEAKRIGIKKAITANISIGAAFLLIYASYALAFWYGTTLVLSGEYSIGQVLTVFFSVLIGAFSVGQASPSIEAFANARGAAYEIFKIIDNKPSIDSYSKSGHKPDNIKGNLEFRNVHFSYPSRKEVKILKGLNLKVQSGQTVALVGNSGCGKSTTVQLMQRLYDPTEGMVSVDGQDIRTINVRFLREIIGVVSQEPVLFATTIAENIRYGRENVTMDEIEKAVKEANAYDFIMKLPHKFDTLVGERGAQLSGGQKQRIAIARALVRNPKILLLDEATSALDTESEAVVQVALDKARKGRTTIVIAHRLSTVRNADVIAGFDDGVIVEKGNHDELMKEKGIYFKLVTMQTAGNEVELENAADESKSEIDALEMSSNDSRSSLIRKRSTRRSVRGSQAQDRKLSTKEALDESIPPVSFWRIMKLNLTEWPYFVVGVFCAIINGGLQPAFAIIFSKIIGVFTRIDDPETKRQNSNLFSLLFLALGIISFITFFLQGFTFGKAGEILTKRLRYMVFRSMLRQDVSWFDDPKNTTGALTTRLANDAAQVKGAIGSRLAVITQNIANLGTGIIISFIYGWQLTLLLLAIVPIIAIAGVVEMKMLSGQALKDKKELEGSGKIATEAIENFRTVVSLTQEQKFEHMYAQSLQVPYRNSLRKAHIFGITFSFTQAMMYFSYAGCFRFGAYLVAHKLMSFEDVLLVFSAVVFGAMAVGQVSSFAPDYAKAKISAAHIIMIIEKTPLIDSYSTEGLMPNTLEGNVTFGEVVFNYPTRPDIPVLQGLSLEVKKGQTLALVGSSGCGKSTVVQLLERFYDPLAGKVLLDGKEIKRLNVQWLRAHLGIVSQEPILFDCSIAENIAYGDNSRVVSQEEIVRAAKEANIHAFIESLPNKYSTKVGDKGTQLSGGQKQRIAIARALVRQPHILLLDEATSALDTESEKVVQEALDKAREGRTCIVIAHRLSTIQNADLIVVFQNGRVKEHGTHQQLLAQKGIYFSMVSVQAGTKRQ
Procedure: The ABCB1 ATPase activity was measured based on vanadate-sensitive principle as previously described ([Zhang et al., 2016]). The High Five insect cells membrane vesicles (BD Biosciences, San Jose, CA, USA) were first incubated for 5 min in ATPase assay buffer at 37°C with or without 0.3 mM vanadate. Then peptide HX-12C at a concentration of 0 to 40 μM was adding to the assay buffer and incubated at 37°C for 3 min. After adding 5 mM Mg-ATP with a total volume of 0.1 mL, the ATPase reaction was initiated until stopped by adding 100 μL 5% SDS solution after incubation at 37°C for 20 min. The amount of inorganic phosphate (IP) was used to calculate the ATPase activity of ABCB1, detected at 800 nm using a spectrophotometer.

In the case of `N.N.[Cl][Pt][Cl]` [Cisplatin, cisplatin], the IC50 (KB-3-1 cells [1]) is reported as 1.79 ± 0.476 µM and the IC50 (HEK293/pcDNA3.1 cells) is reported as 2.21 ± 0.541 µM.
With `COc1cccc2c1C(=O)c1c(O)c3c(c(O)c1C2=O)C[C@@](O)(C(=O)CO)C[C@@H]3O[C@H]1C[C@H](N)[C@H](O)[C@H](C)O1` [Doxorubicin, doxorubicin] the “IC50 in ABCB1-overexpressing cells compared with parental cells” value [2] was “significantly higher than those of their parental cells”, the IC50 ([2]; Homo sapiens, KB-C2, read-out: IC50 of anticancer drug alone) was 69.8 ± 4.64 µM and the IC50 (KB-3-1 cells [1]; Homo sapiens) was 1.19 ± 0.279 µM. For the same compound, the IC50 (HEK293/ABCB1 cells) was 31.2 ± 5.41 µM.
With `CC(=O)O[C@H]1C(=O)[C@@]2(C)[C@H]([C@H](OC(=O)c3ccccc3)[C@]3(O)C[C@H](OC(=O)[C@H](O)[C@@H](NC(=O)c4ccccc4)c4ccccc4)C(C)=C1C3(C)C)[C@]1(OC(C)=O)CO[C@@H]1C[C@@H]2O` [Paclitaxel, paclitaxel] the IC50 (KB-3-1 cells [1]; Homo sapiens) was 0.002 ± 0.0007 µM, the IC50 (HEK293/ABCB1 cells) was 30.9 ± 4.67 µM and the IC50 (HEK293/pcDNA3.1 cells; Homo sapiens) was 1.45 ± 0.121 µM.
For `CC(=O)O[C@H]1C(=O)[C@@]2(C)[C@H]([C@H](OC(=O)c3ccccc3)[C@]3(O)C[C@H](OC(=O)[C@H](O)[C@@H](NC(=O)c4ccccc4)c4ccccc4)C(C)=C1C3(C)C)[C@]1(OC(C)=O)CO[C@@H]1C[C@@H]2O` [[^3H]-paclitaxel], the “decrease of intracellular [3H]-paclitaxel (efflux)” value (ABCB1 in KB-C2 cells [3]) was “about 50%” and the “level of [3H]-paclitaxel in KB-C2 lower than in KB-3-1” value (ABCB1 in KB-C2 cells [4]) was “approximately 100 fold”.
With FFRKVLKLIRKIWR [HX-12C] the IC50 (KB-3-1 cells [5]) was 7.53 µM, the “effect on ATPase activity of ABCB1” value (ABCB1; 0 to 40 μM) was “stimulated ABCB1 ATPase activity; also recorded: can stimulate the ATPase activity of ABCB1 in a concentration-dependent manner” and the “maximal stimulation of ABCB1 ATPase activity” value (ABCB1; peptide 0 to 40 μM, 37°C, 20 min, vanadate-sensitive, three independent experiments) was 4.7 fold of the basic activity.
